# Key:
# H23, H460, and H727 = test: carboplatin-DNA monoadducts by AMS, average of sensitive NSCLC lines; assay type: cell-based, human; conditions: three most sensitive cell lines
# Description: NSCLC cell lines were cultured to >90% confluence, dosed with [^14C]carboplatin, and subjected to DNA isolation and AMS analysis. 60 mm dishes were seeded at a density of 1×10^6 cells/dish and allowed to attach overnight in a 37° C. humidified atmosphere containing 5% CO2. At hour 0, cells were dosed with 1 μM (relevant microdose concentration) or 100 μM carboplatin (therapeutically relevant concentration), each comprising 0.3 μM [^14C]carboplatin (50,000 dpm/ml). Cells were incubated with [^14C]carboplatin for 4 h before washing and cultured with carboplatin-free medium to mimic the in vivo carboplatin half-life (1.3-6 hours) in patients. DNA was harvested from the cell lines at hours 0, 2, 4, 8 and 24 hours after initial dosing. Ten micrograms of DNA per sample was converted to graphite and measured by AMS for ^14C/total C quantification. Triplicate sets of AMS experiments were performed for each cell line and time point. The 14C/total C ratio was converted to 14C atoms per DNA base-pair according to the algorithm described herein to provide values of carboplatin-DNA monoadducts per 10^8 nucleotides. The data was plotted as carboplatin-DNA monoadducts per 10^8 nucleotide (nt) vs time (FIGS. 8A and 8B). There was a time-dependent increase in the carboplatin-DNA monoadduct concentration during the first 4 hours of incubation with therapeutic or microdosing carboplatin (FIGS. 8A and 8B). […]
# PDX Model BL0269 = test: drug-DNA adducts in PDX tumor by AMS; assay type: in vivo, NSG mice
# Source text: (§1) Female NSG mice (5-8 weeks of age, body weight: 20 to 25 g) were obtained from Jackson Laboratories (CA, USA). All animals were kept under pathogen-free conditions and were allowed to acclimatize for at least 4 days prior to any experiments. PDX models bearing the indicated patient derived xenografts were created by subcutaneous injection at the flank of 1 mm^3 tumor tissue. To establish multiple PDXs to allow efficacy studies with multiple drugs, PDXs from passage 2-4 were minced into 1 mm^3 sections and injected subcutaneously into multiple mice. At least 3 mice were used for each treatment group. Tumors were allowed to grow to at about 100 mm^3 before being assessed for drug sensitivity or the induction of DNA adducts by the administration of a microdose or a therapeutic dose of labeled drug. To assess tumor response to chemotherapy, cisplatin was administered at 2 mg/kg IV every 7 days for a total of 3 cycles, or gemcitabine was administered at 150 mg/kg IP every 7 days for a total of 4 cycles. G/C combination chemotherapy consisted of the simultaneous administration of both drugs using the schema described above. Tumor growth was assessed by measuring palpable tumors with a caliper and calculating tumor volume. Drug-DNA adduct frequencies were measured in tumor tissue collected 24 hours after intravenous injection of labeled drug and stored at −80° C. until DNA isolation. DNA was isolated using a modified Wizard procedure (Promega), quantitated by spectrophotometry, and then stored frozen at −20° C. until AMS analysis. Ten micrograms of DNA per sample was converted to graphite and measured by AMS for 14C quantification as previously described.
# (§2) NSG mice bearing the indicated PDX tumors were injected with a microdose of ^14C-labeled carboplatin (FIG. 22A) or ^14C-labeled gemcitabine (FIG. 22B). The microdose of ^14C-labeled carboplatin was 0.375 mg/kg carboplatin, 50,000 dpm/g. The microdose of ^14C-labeled gemcitabine was 0.092 mg/kg gemcitabine, 1000 dpm/g. The doses of each drug administered to the mice were chosen to target 1 μM in plasma concentration of carboplatin and 0.3 μM in plasma concentration of gemcitabine. These plasma concentrations represent 1% of the approximate peak plasma concentration during human chemotherapy. Animals were sacrificed after 24 h and drug-DNA adduct frequency was determined from collected tumor tissue by AMS measurements of ^14C in tumor DNA. Carboplatin DNA-adduct levels correlate with PDX model sensitivity to cisplatin at 24 h after microdosing (FIG. 22A). Gemcitabine DNA-adduct levels correlate with PDX model sensitivity to gemcitabine at 24 h after microdosing (FIG. 22B). […] There is no significant difference in carboplatin-DNA monoadduct levels between the three resistant PDX models. […] We conclude that microdose induced carboplatin-DNA monoadducts predicts sensitivity to cisplatin chemotherapy, and microdose induced gemcitabine incorporation predicts sensitivity to gemcitabine chemotherapy.
# (§3) In this example we test whether gemcitabine/carboplatin (G/Carbo) combination therapy has an effect on the formation of drug-DNA adducts in this synergistic tumor model. In FIG. 23A, NGS mice bearing BL0645 xenographs were administered via tail vein injection a therapeutic dose of [^14C]carboplatin alone or a therapeutic dose of [^14C]carboplatin in combination with a therapeutic dose of gemcitabine. Carboplatin-DNA monoadducts were measured in tumor tissue 24 h after dosing. A therapeutic dose of the combination [^14C]carboplatin plus unlabeled gemcitabine leads to a significant increase in carboplatin-DNA monoadduct level (94.84±16.02 versus 209.6±64.66 adducts per 10^8 nucleotides, p=0.032) compared to treatment with carboplatin alone. In FIG. 23B, the same experiment was conducted in which the mice received a therapeutic dose of [^14C]gemcitabine alone or a therapeutic dose of [^14C]gemcitabine in combination with a therapeutic dose of unlabeled carboplatin. […]
# PDX Model BL0645 = test: drug-DNA adducts in PDX tumor by AMS; assay type: in vivo, NSG mice; conditions: 24 h
# Source text: as §1, §2, §3
# PDX Model BL0293 = test: drug-DNA adducts in PDX tumor by AMS; assay type: in vivo, NSG mice; conditions: microdose 0.375 mg/kg carboplatin, 24 h
# Source text: as §1
# (§4) NSG mice bearing the indicated PDX tumors were injected with a microdose of ^14C-labeled carboplatin (FIG. 22A) or ^14C-labeled gemcitabine (FIG. 22B). The microdose of ^14C-labeled carboplatin was 0.375 mg/kg carboplatin, 50,000 dpm/g. The microdose of ^14C-labeled gemcitabine was 0.092 mg/kg gemcitabine, 1000 dpm/g. The doses of each drug administered to the mice were chosen to target 1 μM in plasma concentration of carboplatin and 0.3 μM in plasma concentration of gemcitabine. These plasma concentrations represent 1% of the approximate peak plasma concentration during human chemotherapy. Animals were sacrificed after 24 h and drug-DNA adduct frequency was determined from collected tumor tissue by AMS measurements of ^14C in tumor DNA. Carboplatin DNA-adduct levels correlate with PDX model sensitivity to cisplatin at 24 h after microdosing (FIG. 22A). Gemcitabine DNA-adduct levels correlate with PDX model sensitivity to gemcitabine at 24 h after microdosing (FIG. 22B). […] There is no significant difference in carboplatin-DNA monoadduct levels between the three resistant PDX models. […]
# PDX Model BL0440 = test: drug-DNA adducts in PDX tumor by AMS; assay type: in vivo, NSG mice; conditions: microdose 0.375 mg/kg carboplatin, 24 h
# Source text: as §1, §4
# [1] = safety of radiolabeled microdose in patients; conditions: IV microdose, 1% of the therapeutic dose
# Description: Microdoses of the [^14C]Carboplatin were administered to human cancer patients as a diagnostic reagent, followed by full dose platinum-based chemotherapy and evaluation of response. Within four weeks of the [^14C]carboplatin microdose, these patients received standard of care chemotherapy for their disease, which included either carboplatin or cisplatin. The patient population consisted of non-small cell lung cancer patients (NSCLC), stage IV with measurable lesions, and bladder transitional cell carcinoma (TCC) patients, stage II disease and above for neoadjuvant treatment, or stage III and IV metastatic disease with measurable lesions for palliative chemotherapy. Patients were identified for this study as having measurable lesions using the Response Evaluation Criteria in Solid Tumor (RECIST), an Eastern Cooperative Oncology Group performance status of <2, and adequate bone marrow and vital organ function. PBMC and tumor tissue were collected from the patients for analysis of carboplatin-DNA monoadduct frequencies. Toxicity of the [^14C]carboplatin diagnostic reagent administered as a microdose was assessed using Common Terminology Criteria for Adverse Events (CTCAE). Toxicities of grade 3 and above were also collected for patient specific toxic response to full dose chemotherapy for correlation analysis to carboplatin-DNA monoadduct frequency. Patient response to chemotherapy was evaluated using the RECIST for correlation to carboplatin-DNA monoadduct frequency.
# The dose of carboplatin in the diagnostic microdose was chosen to be sub-toxic and non-therapeutic, to minimize patient chemical and radiation exposure, and to result in AMS measurable carboplatin-DNA monoadducts. Nineteen patients have been administered at least one microdose of [^14C]carboplatin via IV infusion as a diagnostic reagent. Patient toxicity related to the microdose was monitored from the time of IV microdose until the patients received their first chemotherapy. […] The total radioactive dose given to a 75 kg patient after an IV microdose of [^14C]carboplatin is calculated to be 338 μCi. […]
compound,measurement,setting,value
N.N.O=C([O-])C1(C(=O)[O-])CCC1.[Pt+2] [carboplatin],average area under curve (AUC) of carboplatin-DNA monoadducts,"H23, H460, and H727; microdosing",94.61±33.99 hr-monoadducts per 10^8 nt
same,average area under curve (AUC) of carboplatin-DNA monoadducts,"H23, H460, and H727; therapeutic dosing",9617.8±3172.7 hr-monoadducts per 10^8 nt
same,Carboplatin-DNA monoadduct levels,"PDX Model BL0269; control experiment FIG. 23E, microdose single agent or G/Carbo combination",1.85±0.798 adducts per 10^8 nucleotides
same,mean carboplatin-DNA monoadduct level,"PDX Model BL0269; microdose 0.375 mg/kg carboplatin, 24 h (FIG. 22A)",1.77±0.706 adducts per 10^8 nucleotides
same,mean carboplatin-DNA monoadduct level,PDX Model BL0645; microdose 0.375 mg/kg carboplatin alone or with gemcitabine 0.092 mg/kg,1.27±0.307 adducts per 10^8 nucleotides
same,carboplatin-DNA monoadduct level,PDX Model BL0645; therapeutic 37.5 mg/kg carboplatin alone or with gemcitabine 9.2 mg/kg,94.84±16.02 adducts per 10^8 nucleotides
same,mean carboplatin-DNA monoadduct level,PDX Model BL0293,1.46±0.520 adducts per 10^8 nucleotides
same,mean carboplatin-DNA monoadduct level,PDX Model BL0440,2.73±0.661 adducts per 10^8 nucleotides
same,clinical side effects,[1],None of the clinical side effects associated with standard therapeutic doses of carboplatin were observed
same,tolerability of radiolabeled microdose,[1],well tolerated

# — US20200010910A1, “Cytotoxic Chemotherapy-Based Predictive Assays for Acute Myeloid Leukemia” (The Regents of The University of California, priority 2017, published 2020)
